Measured values from patent US20220274980A1, “PHARMACOLOGICAL INHIBITORS OF THE ENL YEATS DOMAIN” (priority 2019, published 2022).
Read-outs that look alike come from different tables or passages of the source.

Legend:
[1] = target: T1, ENL YEATS domain (association with H3K27cr) (Homo sapiens, UniProt Q03111); assay: biochemical; conditions: ENL (YEATS)-H3K27cr HTRF (IC50, μM)
T1 sequence (Q03111 1-148): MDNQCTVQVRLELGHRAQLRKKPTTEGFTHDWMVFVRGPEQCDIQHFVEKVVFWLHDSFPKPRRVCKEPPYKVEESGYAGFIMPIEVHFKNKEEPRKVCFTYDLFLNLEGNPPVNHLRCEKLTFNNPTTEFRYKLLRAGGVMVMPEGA
Description: (§1) Protein Production. Double stranded DNA fragments encoding the protein sequence of ENL YEATS(1-148) were synthesized (IDT DNA) for assembly-based cloning into a modified expression vector backbone derived from pET21a (Novagen). The protein was fused to a StrepII-SUMO and 6×His tag on the amino and carboxy terminus, respectively. Transformed BL21(DE3) cells (New England Biolabs) were grown at 37° C. in 2×YT growth medium to an OD600 of 0.6. Protein expression was induced at 25° C. with the addition of isopropyl-β-D-thiogalactopyranoside (IPTG) to a final concentration of 0.4 mM. The culture was harvested by centrifugation following a 20-hour incubation and subsequently purified by immobilized metal affinity chromatography. Cells were resuspended 50 mM Tris-HCl pH 8.0, 300 mM NaCl, 10% glycerol, 10 mM imidazole, 1 mM DTT containing Complete EDTA-free protease inhibitor (Roche) and lysed by two passes through a MicroFluidizer at 10,000 psi. The lysate was clarified by centrifugation at 16,000 rpm for 30 minutes at 4° C. The supernatant was passed over NiNTA agarose (QIAGEN) and the protein was eluted in 50 mM Tris-HCl pH 8.0, 300 mM NaCl, 10% glycerol, 250 mM imidazole, 1 mM DTT. Fractions containing the ENL YEATS(1-148) fusion protein were buffer exchanged into 100 mM Tris-HCl pH 8.0, 150 mM NaCl, 1 mM EDTA, 1 mM DTT using PD10 desalting columns (GE Life Sciences). Ulp1 protease was added to cleave the StrepII-SUMO fusion and the reaction mixture was incubated overnight at 4° C. The cleavage reaction mixture was loaded onto a StrepTrap column (GE Life Sciences) and ENL YEATS(1-148) was recovered in the flow through. BRD4 BD1 was purchased from Cayman (Cat. No. 11720).
(§2) Homogenous time-resolved FRET (HTRF) histone-binding assays. Both HTRF assays were performed by combining recombinant protein and synthetic histone peptide in assay buffer (25 mM HEPES pH 7, 20 mM NaCl, 0.2% Pluronic F-127, and 0.05% BSA) with 1 nM LanthaScreen Eu-anti-His Tag antibody (ThermoFisher, Cat. No, PV5597) and 8.9 nM SureLight allophycocyanin-streptavidin (Perkin Elmer, APC-SA, Cat. No. CR130-100). ENL YEATS was used at 5 nM and BRD4 BD1 was used at 10 nM. ENL assays were performed with H3(13-32)K27cr (13.3 and 100 nM, respectively), custom synthesized at ABclonal (N-terminal biotin, C-terminal amide); BRD4 BD1 assay was performed with 13.3 nM tetra-acetylated H4 (BioVision, Cat. No. 7144-01). Once all reagents were combined (with or without peptide), 10 μL was dispensed per well into black 384-well low-volume plates (Corning, Cat. No. 3821) and drug was added by pin tool transfer (Biomek FX). Assays were incubated for 2 or more hours before measurement of HTRF signal on a PHERAstar plate reader (BMG Labtech; simultaneous dual emission; excitation=337 nm, emission 1=665 nm, emission 2=620 nm). HTRF signal (ratio of emission 1 to emission 2) from vehicle-treated wells (maximum signal) and no-peptide-control wells (minimum signal) were used to calculate percent inhibition for drug-treated wells.

[2] = Half-life in mouse liver microsomes; type: in vitro ADME
[3] = target: T2, ENL(YEATS)-HiBiT (Homo sapiens, UniProt Q03111); assay: cell-based
T2 sequence (Q03111 1-138 limits assumed): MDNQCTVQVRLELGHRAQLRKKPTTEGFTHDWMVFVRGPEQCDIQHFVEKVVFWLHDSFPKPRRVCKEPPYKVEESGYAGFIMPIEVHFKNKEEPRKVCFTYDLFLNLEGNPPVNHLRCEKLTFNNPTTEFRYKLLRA
Description: (§3) Cellular thermal shift assay (CETSA). […] Cells were transferred to 384-well (20,000 cells per well in 20 μL) or 1,536-well (3,000 cells per well in 4 μL) plates and drug was transferred using a 100 nL pin tool for 384-well plates or acoustic transfer (Labcyte, Echo Liquid Handler) for 1,536-well plates. Luminescent detection of HiBiT was performed by combining an equal volume of Nano-Glo HiBiT Lytic Reagent (Promega, HiBiT Lytic Detection System, Cat. No. N3040) in each well. […] Briefly, cells were treated with drug, washed with PBS, heated to various temperatures in a thermocycler, cooled to room temperature, lysed by three rounds of freeze-thaw, and then clarified lystaes were subjected to immunoblot analysis.

[4] = target: T2, ENL(YEATS)-HiBiT; conditions: read-out: ENL YEATS CETSA (IC50); Table 2; OCI/AML-2 cells expressing ENL(YEATS)-HiBiT
Description: as §3

[5] = target: T3, BRD4 bromodomain 1 (BD1) (Homo sapiens, UniProt O60885); assay: BRD4 (BD1)-H4 tetra-acetylated HTRF histone-binding assay
T3 construct: Selectivity against BRD4 bromodomain 1 (BD1), measured by HTRF; His; purchased Cayman 11720
Description: as §1, §2

[6] = read-out: t1/2 (min) mouse liver microsomes
[7] = without NADPH, read-out: t1/2 mouse (min liver microsomes (without NADPH))

Row | SMILES | IC50 ([1]; Table 1) [µM] | IC50 ([1]; Table 2) [µM] | half-life [2, 6] [min] | half-life [2, 7] [min] | IC50 [3] [µM] | IC50 [4] [µM] | IC50 ([5]; Table 1) [µM] | IC50 ([5]; Table 2) [µM]
1 | O=C(NC1CCC1)c1ccc2nc(-c3cccc(NS(=O)(=O)NCCN4CCCCC4=O)c3)cn2c1 [Compound 95] | 0.21 | 0.21 | 6.07 | 504 | 1.05 |  |  | 
2 | N#CC1(NC(=O)c2ccc3nc(-c4ccccc4)cn3c2)CCC1 [Compound 82] | > 50 | > 50 |  |  | > 50 | > 50 |  | 
3 | CC(C)NC(=O)c1ccc2nc(-c3cccc(C(F)(F)F)c3)cn2c1 [Compound 21] | 15 | 15 |  |  | > 100 | > 100 | > 50 | > 50
4 | O=C(NC1CCC(O)CC1)c1ccc2nc(-c3ccccc3)cn2c1 (stereo not drawn) [Compound 2] | > 50 | > 50 |  |  | > 100 | > 100 | > 50 | > 50
5 | O=C(NC1C2CC1C2)c1ccc2nc(-c3ccccc3)cn2c1 (stereo not drawn) [Compound 84] | > 50 | > 50 |  |  | > 50 | > 50 |  | 
6 | COc1ccccc1-c1cn2cc(C(=O)NC(C)C)ccc2n1 [Compound 10] | > 50 | > 50 |  |  | > 100 | > 100 | > 50 | > 50
7 | O=C(NC1(c2ccccc2)CCC1)c1ccc2nc(-c3ccccc3)cn2c1 [Compound 83] | > 50 | > 50 |  |  | > 50 | > 50 |  | 
8 | O=C(NC1Cc2ccccc2C1)c1ccc2nc(-c3ccccc3)cn2c1 [Compound 77] | > 50 | > 50 |  |  | > 50 | > 50 |  | 
9 | CC(C)NC(=O)c1ccc2nc(-c3ccc(C(F)(F)F)cc3)cn2c1 [Compound 7] | > 50 | > 50 |  |  | > 100 | > 100 | > 50 | > 50

Second part, the molecule after the results:

Row | IC50 ([1]; Table 1) [µM] | IC50 ([1]; Table 2) [µM] | half-life [2, 6] [min] | half-life [2, 7] [min] | IC50 [3] [µM] | IC50 [4] [µM] | IC50 ([5]; Table 1) [µM] | IC50 ([5]; Table 2) [µM] | SMILES
10 | > 50 | > 50 |  |  | > 50 | > 50 |  |  | O=C(NC1(CO)CCC1)c1ccc2nc(-c3ccccc3)cn2c1 [Compound 72]
11 | > 50 | > 50 |  |  | > 50 | > 50 |  |  | O=C(N[C@H]1CCc2ccccc21)c1ccc2nc(-c3ccccc3)cn2c1 [Compound 79]
12 | 0.696 | 0.696 | 13.1 | 16.1 | 2.2 |  |  |  | O=C(CCCCN1CCCCC1)Nc1cccc(-c2cn3cc(C(=O)NC4CCC4)ccc3n2)c1 [Compound 103]
13 | 3.03 | 3.03 |  |  | > 50 | > 50 |  |  | O=C(NC1Cc2ccccc21)c1ccc2nc(-c3ccccc3)cn2c1 (stereo not drawn) [Compound 80]
14 | > 50 | > 50 |  |  | > 50 | > 50 |  |  | Cc1ccc(C2CCC2NC(=O)c2ccc3nc(-c4ccccc4)cn3c2)c(C)c1 (stereo not drawn) [Compound 123]
15 | > 50 | > 50 |  |  | > 100 | > 100 | > 50 | > 50 | CC(C)NC(=O)c1ccc2nc(-c3ccccc3C(F)(F)F)cn2c1 [Compound 6]
16 | > 50 | > 50 |  |  | > 100 | > 100 | > 50 | > 50 | Cc1ccc(-c2cn3cc(C(=O)NC(C)C)ccc3n2)cc1C [Compound 25]
